How the values were obtained:
Test in all cases: relative viability (nuclei count vs DMSO), 5 days (fraction); higher = more cells survive
XMD8-85 + Pemetrexed = compound: CN1CCN(CC1)C2=CC(=C(C=C2)NC3=NC=C4C(=N3)N(C5=CC=CC=C5C(=O)N4C)C)OC [XMD8-85] + Nc1nc2[nH]cc(CCc3ccc(C(=O)N[C@@H](CCC(=O)O)C(=O)O)cc3)c2c(=O)[nH]1 [Pemetrexed] (partner 0.2 µM)
Summary of the method: (§1)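 Lung cancer cell lines were seeded in 1536-well plates and dosed by pin tool the next day, with either a single drug or a fixed anchor-drug dose combined with five library-drug doses (not always all listed) spaced in √10 steps. Five days later, one step fixed the cells and stained their nuclei (final 0.05% Triton X-100, 1% formaldehyde, 1 ug/ml Hoechst), and nuclei were counted on 4× images. Relative viability is the nuclei count in treated wells divided by the count in vehicle wells, and each value is the median of duplicate plates.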

4EGI-1 + OSI-027 = compound: O=C(O)C(Cc1ccccc1[N+](=O)[O-])=NNc1nc(-c2ccc(Cl)c(Cl)c2)cs1 (mixture of isomers) [4EGI-1] + COc1cccc2cc(-c3nc([C@H]4CC[C@H](C(=O)O)CC4)n4ncnc(N)c34)[nH]c12 [OSI-027] (partner 0.5 µM)
Summary of the method: as §1

4EGI-1 + Decitabine = compound: O=C(O)C(Cc1ccccc1[N+](=O)[O-])=NNc1nc(-c2ccc(Cl)c(Cl)c2)cs1 (mixture of isomers) [4EGI-1] + Nc1ncn([C@H]2C[C@H](O)[C@@H](CO)O2)c(=O)n1 [Decitabine] (partner 2 µM)
Summary of the method: as §1

4EGI-1 + Olaparib = compound: O=C(O)C(Cc1ccccc1[N+](=O)[O-])=NNc1nc(-c2ccc(Cl)c(Cl)c2)cs1 (mixture of isomers) [4EGI-1] + O=C(c1cc(Cc2n[nH]c(=O)c3ccccc23)ccc1F)N1CCN(C(=O)C2CC2)CC1 [Olaparib] (partner 8 µM)
Summary of the method: as §1

Cell Line | relative viability (XMD8-85 + Pemetrexed; first compound 0.08 µM) | relative viability (XMD8-85 + Pemetrexed; first compound 0.253 µM) | relative viability (XMD8-85 + Pemetrexed; first compound 0.8 µM) | relative viability (XMD8-85 + Pemetrexed; first compound 2.53 µM) | relative viability (XMD8-85 + Pemetrexed; first compound 8 µM) | relative viability (4EGI-1 + OSI-027; first compound 0.5 µM) | relative viability (4EGI-1 + OSI-027; first compound 1.581 µM) | relative viability (4EGI-1 + OSI-027; first compound 5 µM) | relative viability (4EGI-1 + OSI-027; first compound 15.81 µM) | relative viability (4EGI-1 + OSI-027; first compound 50 µM) | relative viability (4EGI-1 + Decitabine; first compound 0.5 µM) | relative viability (4EGI-1 + Decitabine; first compound 1.581 µM) | relative viability (4EGI-1 + Decitabine; first compound 5 µM) | relative viability (4EGI-1 + Decitabine; first compound 15.81 µM) | relative viability (4EGI-1 + Decitabine; first compound 50 µM) | relative viability (4EGI-1 + Olaparib; first compound 0.5 µM) | relative viability (4EGI-1 + Olaparib; first compound 1.581 µM) | relative viability (4EGI-1 + Olaparib; first compound 5 µM) | relative viability (4EGI-1 + Olaparib; first compound 15.81 µM) | relative viability (4EGI-1 + Olaparib; first compound 50 µM)
NCI-H1651 | 0.506 | 0.617 | 0.602 | 0.748 | 0.445 | 0.845 | 0.565 | 0.693 | 0.664 | 0.463 | 0.626 | 0.553 | 0.734 | 0.576 | 0.286 | 0.186 | 0.176 | 0.185 | 0.189 | 0.151
NCI-H322M | 0.579 | 0.596 | 0.606 | 0.59 | 0.48 | 0.63 | – | 0.546 | 0.532 | 0.223 | 0.692 | – | 0.764 | 0.636 | 0.727 | 0.761 | – | 0.795 | 0.761 | 0.457
LU99A | 0.162 | 0.179 | 0.183 | 0.199 | 0.165 | 0.306 | 0.275 | 0.269 | 0.274 | 0.288 | 0.879 | 0.699 | 0.83 | 0.851 | 0.508 | 0.243 | 0.212 | 0.242 | 0.193 | 0.141
PC-14 | 0.114 | 0.144 | 0.126 | 0.116 | 0.101 | 1.21 | – | 1.15 | 0.14 | 0.0614 | 0.227 | – | 0.222 | 0.13 | 0.0662 | 0.295 | – | 0.239 | 0.1 | 0.0599
SK-MES-1 | 0.857 | 1.08 | 1 | 0.9 | 0.44 | 0.704 | 0.523 | 0.611 | 0.548 | 0.199 | 0.384 | 0.323 | 0.362 | 0.285 | 0.241 | 0.767 | 0.508 | 0.639 | 0.229 | 0.148
NCI-H358 | 0.165 | 0.176 | 0.175 | 0.164 | 0.183 | 0.778 | 0.624 | 1.08 | 0.391 | 0.106 | 0.218 | 0.203 | 0.189 | 0.138 | 0.115 | 0.599 | 0.58 | 0.531 | 0.336 | 0.118
NCI-H2347 | 0.393 | 0.529 | 0.427 | 0.406 | 0.431 | 0.404 | – | 0.475 | 0.389 | 0.405 | 0.68 | 0.649 | 0.569 | 0.586 | 0.543 | 0.555 | 0.487 | 0.567 | 0.607 | 0.533
NCI-H1395 | 0.768 | 0.744 | 0.854 | 0.976 | 0.594 | 0.647 | 0.43 | 0.686 | 0.567 | 0.355 | 0.746 | – | 0.817 | 0.695 | 0.515 | 0.492 | – | 0.47 | 0.457 | 0.394
SK-LU-1 | 0.973 | 0.916 | 0.966 | 1.1 | 0.851 | 0.381 | 0.36 | 0.356 | 0.34 | 0.174 | 0.682 | 0.65 | 0.653 | 0.48 | 0.367 | 0.484 | 0.448 | 0.439 | 0.431 | 0.224
NCI-H650 | 0.944 | 0.921 | 1.04 | 0.852 | 0.717 | 0.6 | – | 0.565 | 0.5 | 0.443 | 0.352 | – | 0.34 | 0.332 | 0.322 | 0.439 | – | 0.414 | 0.404 | 0.288
NCI-H1437 | 0.29 | 0.33 | 0.363 | 0.317 | 0.272 | 0.945 | 0.853 | 0.886 | 0.743 | 0.256 | 0.58 | 0.593 | 0.544 | 0.435 | 0.221 | 0.655 | 0.625 | 0.589 | 0.395 | 0.194
NCI-H596 | 0.477 | – | 0.457 | 0.465 | 0.368 | 0.844 | 0.579 | 0.905 | 0.62 | 0.518 | 1.01 | 1.11 | 1.16 | 0.942 | 0.569 | 0.726 | 0.664 | 0.786 | 0.568 | 0.464
NCI-H661 | 0.944 | 0.946 | 0.93 | 1.01 | 0.782 | 0.713 | 0.583 | 0.649 | 0.383 | 0.245 | 0.582 | 0.568 | 0.519 | 0.385 | 0.341 | 0.765 | 0.637 | 0.584 | 0.454 | 0.336
PC-3 [JPC-3] | 1.21 | 0.928 | 1.1 | 1.27 | 0.452 | 0.778 | 0.73 | 0.746 | – | 0.498 | 0.95 | – | 0.771 | 0.498 | 0.53 | 1.16 | – | 1.17 | 0.526 | 0.484
RERF-LC-KJ | 0.46 | 0.478 | 0.484 | 0.497 | 0.43 | 0.665 | – | 0.529 | 0.413 | 0.296 | 0.828 | – | 0.609 | 0.444 | 0.285 | 0.97 | – | 0.902 | 0.489 | 0.254
NCI-H2170 | 0.258 | 0.28 | 0.264 | 0.269 | 0.286 | 0.785 | 0.63 | 0.713 | 0.558 | 0.391 | 0.502 | 0.449 | 0.459 | 0.441 | 0.282 | 0.625 | 0.541 | 0.567 | 0.36 | 0.189
NCI-H1993 | 0.604 | 0.572 | 0.681 | 0.739 | 0.563 | 0.495 | 0.528 | 0.627 | 0.611 | 0.577 | 0.74 | 0.548 | 0.588 | 0.619 | 0.462 | 1.11 | 0.965 | 1.21 | 0.967 | 0.522
A-427 | 1.09 | 1.02 | 1.08 | 1.1 | 0.754 | 0.604 | 0.386 | 0.534 | 0.44 | 0.152 | 0.575 | – | 0.592 | 0.513 | 0.336 | 0.777 | – | 0.766 | 0.643 | 0.276
NCI-H1650 | 0.376 | 0.384 | 0.384 | 0.306 | 0.294 | 0.705 | – | 0.681 | 0.263 | 0.173 | 0.37 | – | 0.421 | 0.256 | 0.293 | 0.757 | – | 0.803 | 0.537 | 0.214
HCC-78 | 0.915 | 0.892 | 0.906 | 0.95 | 0.855 | 0.356 | – | 0.38 | 0.34 | 0.362 | 0.768 | – | 0.729 | 0.621 | 0.725 | 1.05 | – | 0.881 | 0.816 | 1.13
NCI-H3122 | 0.178 | 0.201 | 0.203 | 0.213 | 0.172 | 1.27 | – | 1.04 | 0.862 | 0.235 | 0.452 | 0.487 | 0.454 | 0.521 | 0.351 | 0.578 | 0.554 | 0.667 | 0.448 | 0.301
LOU-NH91 | 0.281 | 0.333 | 0.311 | 0.295 | 0.378 | 0.737 | – | 0.752 | 0.432 | 0.675 | 0.841 | – | 0.815 | 0.658 | 0.686 | 0.95 | – | 0.911 | 0.738 | 0.564
ChaGo-K-1 | 0.276 | 0.268 | 0.26 | 0.248 | 0.232 | 0.595 | 0.526 | 0.558 | 0.483 | 0.381 | 0.538 | 0.511 | 0.523 | 0.479 | 0.352 | 0.386 | 0.406 | 0.407 | 0.34 | 0.217
NCI-H2009 | 0.958 | 1.03 | 1.1 | 0.885 | 0.767 | 0.765 | 0.651 | 0.768 | 0.657 | 0.161 | 0.419 | 0.359 | 0.389 | 0.292 | 0.317 | 0.768 | 0.63 | 0.647 | 0.421 | 0.374
NCI-H23 | 0.546 | 0.677 | 0.607 | – | 0.4 | 0.612 | – | 0.614 | 0.453 | 0.417 | 0.331 | – | 0.337 | 0.45 | 0.2 | 0.335 | – | 0.278 | 0.245 | 0.161
